Among the test systems are 786-0; A549; CCRF-CEM; COLO 205; EKVX; HOP-62; MDA-MB-435; MDA-N; Malme-3M; NCI-H226; NCI-H460; NCI/ADR-RES; OVCAR-4; OVCAR-8; SF-295; SR; SW-620; U-251; UACC-257; UO-31.
Common to all, as to assay: NCI-60 cell line screen, 48 h

Molecules are shown by their SMILES.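 Five compound concentrations were applied to cells in 96-well plates for 48 hours; endpoints were derived by simple linear interpolation of the resulting dose-response curve. GI50 = concentration required for 50% inhibition of growth.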 Active and inactive are the calls of the source. No stated cut-off is given here; in the data, active = GI50 up to about 1.1 µM and inactive = higher.

Regarding `NCc1ccccc1.O=C(O)NCc1ccccc1`, the GI50 with 786-0 was 36.3 µM (inactive); in the experiment with A549, 34.9 µM (inactive); in the experiment on CCRF-CEM, 19.4 µM (inactive); with COLO 205 it was 19.3 µM (inactive); in the experiment with EKVX, 30.6 µM (inactive); with HOP-62, 38 µM (inactive). Further, the GI50 was 31.5 µM (inactive) in the experiment with MDA-MB-435; 29.5 µM (inactive) with MDA-N; 27.4 µM (inactive) in the experiment with Malme-3M; 30.1 µM (inactive) in the experiment with NCI-H226; 26.5 µM (inactive) with NCI-H460; 26.9 µM (inactive) with NCI/ADR-RES. Moreover, the GI50 is 25.1 µM (inactive) in the experiment with OVCAR-4; 37.1 µM (inactive) in the experiment on OVCAR-8; 31.2 µM (inactive) in the experiment on SF-295; 0.682 µM (active) in the experiment on SR; 34.8 µM (inactive) with SW-620; 26.9 µM (inactive) in the experiment on U-251. The figures for the GI50 in the experiment with UACC-257 and in the experiment on UO-31 were 32 µM (inactive) and 24.3 µM (inactive), respectively.

Take `NCCN1C(=O)CN=C(c2ccc(Cl)cc2)c2cc(Cl)ccc21`: the GI50 in the experiment on 786-0 was 15.9 µM (inactive); in the experiment with A549, 17.1 µM (inactive); with CCRF-CEM, 15.5 µM (inactive); in the experiment with COLO 205 it was 19.3 µM (inactive); with EKVX, 26.2 µM (inactive); in the experiment on HOP-62, 17.3 µM (inactive). Besides, the GI50 in the experiment with MDA-MB-435 was 14.9 µM (inactive); in the experiment with MDA-N, 16.7 µM (inactive); in the experiment on Malme-3M, 14.2 µM (inactive); in the experiment on NCI-H226 it was 14 µM (inactive); in the experiment on NCI-H460, 18 µM (inactive); in the experiment on NCI/ADR-RES it was 15.9 µM (inactive). The GI50 in the experiment with OVCAR-4 was 16.2 µM (inactive); in the experiment with OVCAR-8 it was 16.7 µM (inactive); in the experiment with SF-295 it was 32.8 µM (inactive); with SR, 17.9 µM (inactive); in the experiment with SW-620, 15.7 µM (inactive); with U-251 it was 16.8 µM (inactive). For the same compound, the GI50 in the experiment on UACC-257 is 19 µM (inactive); in the experiment on UO-31 it was 13.9 µM (inactive).

With `COc1cc2c(c(O)c1OC)C(O)C1CCC(=O)N1C2c1cccc2ccccc12` (stereo not given), the GI50 is > 100 µM (inactive) in the experiment on 786-0; 99.1 µM (inactive) in the experiment with A549; 81.7 µM (inactive) with CCRF-CEM; > 100 µM (inactive) in the experiment on COLO 205; 67.8 µM (inactive) in the experiment on EKVX; > 100 µM (inactive) in the experiment on HOP-62. Also, the GI50 with MDA-MB-435 is 51.4 µM (inactive); in the experiment with MDA-N, 76.4 µM (inactive); in the experiment with Malme-3M, 36.9 µM (inactive); with NCI-H226, > 100 µM (inactive); in the experiment with NCI-H460 it was > 100 µM (inactive); with NCI/ADR-RES it was 54.6 µM (inactive). In addition, the GI50 is 65.6 µM (inactive) in the experiment on OVCAR-4; > 100 µM (inactive) in the experiment with OVCAR-8; 99.8 µM (inactive) in the experiment with SF-295; > 100 µM (inactive) with SR; > 100 µM (inactive) with SW-620; > 100 µM (inactive) in the experiment with U-251. Further, the GI50 in the experiment on UACC-257 is > 100 µM (inactive); with UO-31, 91.8 µM (inactive).

With `COc1ccccc1N1C(=O)CSC1c1cc(OC)c(OC)c(OC)c1` (stereo not given), the GI50 was 18.8 µM (inactive) with 786-0; > 100 µM (inactive) with A549; 13.2 µM (inactive) with CCRF-CEM; > 100 µM (inactive) with COLO 205; > 100 µM (inactive) in the experiment with EKVX; > 100 µM (inactive) in the experiment with HOP-62. For the same compound, the GI50 is 14.7 µM (inactive) in the experiment with MDA-MB-435; 11.9 µM (inactive) in the experiment on MDA-N; > 22.3 µM (inactive) in the experiment on Malme-3M; > 50 µM (inactive) with NCI-H226; > 100 µM (inactive) in the experiment with NCI-H460; 69.8 µM (inactive) in the experiment on NCI/ADR-RES. In addition, the GI50 in the experiment with OVCAR-4 is > 77.8 µM (inactive); in the experiment on OVCAR-8, > 100 µM (inactive); in the experiment with SF-295, > 30.4 µM (inactive); with SR it was 10.7 µM (inactive); in the experiment with SW-620 it was 27.5 µM (inactive); in the experiment with U-251, 31.1 µM (inactive). Also, the figures for the GI50 with UACC-257 and in the experiment with UO-31 were > 84.7 µM (inactive) and > 76.7 µM (inactive), respectively.

Turning to `CCOC(=O)C(=O)/C(=C/NC(=S)Nc1ccc(Cl)c(Cl)c1)C(=O)OCC`, the GI50 was 89.7 µM (inactive) in the experiment on 786-0; > 100 µM (inactive) in the experiment on A549; 53.3 µM (inactive) in the experiment on CCRF-CEM; 67.9 µM (inactive) with COLO 205; 25.6 µM (inactive) in the experiment on EKVX; > 100 µM (inactive) in the experiment on HOP-62. The GI50 in the experiment with MDA-MB-435 was 72.1 µM (inactive); in the experiment with MDA-N it was 61.2 µM (inactive); with Malme-3M, > 100 µM (inactive); in the experiment on NCI-H226, 56 µM (inactive); with NCI-H460, > 100 µM (inactive); in the experiment with NCI/ADR-RES, 50.1 µM (inactive). Further, the GI50 with OVCAR-4 is 88.7 µM (inactive); in the experiment on OVCAR-8, > 100 µM (inactive); in the experiment on SF-295 it was > 100 µM (inactive); in the experiment on SR, 30.5 µM (inactive); in the experiment with SW-620, 87.9 µM (inactive); in the experiment on U-251 it was > 100 µM (inactive). The GI50 in the experiment on UACC-257 is 60.3 µM (inactive); in the experiment on UO-31 it was 27.5 µM (inactive).

On to `COC(=O)c1ccc2n1C1CC3CC(CC2C3)C1`, for which the GI50 with 786-0, with A549, in the experiment on CCRF-CEM, with COLO 205, with EKVX and in the experiment on HOP-62 was > 100 µM (inactive) each time. The GI50 in the experiment with MDA-MB-435, with MDA-N, in the experiment with Malme-3M, with NCI-H226, in the experiment with NCI-H460 and in the experiment on NCI/ADR-RES was > 100 µM (inactive) throughout. In addition, the GI50 with OVCAR-4 was > 100 µM (inactive); in the experiment on OVCAR-8 it was > 100 µM (inactive); in the experiment with SF-295 it was > 100 µM (inactive); with SR, 46.3 µM (inactive); in the experiment with SW-620, > 100 µM (inactive); in the experiment with U-251, > 100 µM (inactive). In addition, the GI50 in the experiment on UACC-257 and in the experiment with UO-31 was > 100 µM (inactive) each time.

As for `CCOC(=O)c1cccc([N+](=O)[O-])c1N`, the GI50 in the experiment with 786-0 is > 100 µM (inactive); with A549 it was > 100 µM (inactive); in the experiment with CCRF-CEM, > 100 µM (inactive); in the experiment with COLO 205 it was > 100 µM (inactive); in the experiment on EKVX it was 6.11 µM (inactive); in the experiment with HOP-62, > 100 µM (inactive). Besides, the GI50 is > 100 µM (inactive) in the experiment on MDA-MB-435; > 100 µM (inactive) with MDA-N; 19.1 µM (inactive) in the experiment with Malme-3M; > 100 µM (inactive) with NCI-H226; > 100 µM (inactive) with NCI-H460; > 100 µM (inactive) in the experiment on NCI/ADR-RES. For the same compound, the GI50 in the experiment with OVCAR-4, in the experiment on OVCAR-8, in the experiment with SF-295, in the experiment on SR, in the experiment with SW-620 and in the experiment with U-251 was > 100 µM (inactive) in each case. The GI50 in the experiment on UACC-257 and in the experiment on UO-31 was > 100 µM (inactive) throughout.

For `O=C1C2=Cc3ccccc3CCN2c2ccc([N+](=O)[O-])cc21`, the GI50 in the experiment on 786-0 was > 100 µM (inactive); with A549, 31.3 µM (inactive); in the experiment with CCRF-CEM, 53.3 µM (inactive); with COLO 205, 43.2 µM (inactive); in the experiment with EKVX, 21.4 µM (inactive); in the experiment on HOP-62, > 100 µM (inactive). Moreover, the GI50 in the experiment on MDA-MB-435 is > 100 µM (inactive); with MDA-N, > 100 µM (inactive); with Malme-3M, 32.7 µM (inactive); in the experiment on NCI-H226, 64 µM (inactive); with NCI-H460, 30.7 µM (inactive); in the experiment on NCI/ADR-RES, 24 µM (inactive). Further, the GI50 in the experiment on OVCAR-4 is > 100 µM (inactive); in the experiment with OVCAR-8 it was 35.4 µM (inactive); in the experiment with SF-295 it was 36.6 µM (inactive); in the experiment with SR, 66.8 µM (inactive); with SW-620, > 100 µM (inactive); with U-251 it was > 100 µM (inactive). The GI50 was 36.4 µM (inactive) with UACC-257 and 24.2 µM (inactive) in the experiment on UO-31.

For `Oc1cc(Br)cc2cc(Cl)cnc12`, the GI50 is 8.71 µM (inactive) in the experiment on 786-0; 2.06 µM (inactive) in the experiment on A549; 1.53 µM (inactive) in the experiment with CCRF-CEM; 21.4 µM (inactive) in the experiment on COLO 205; 3.99 µM (inactive) in the experiment with EKVX; 4.84 µM (inactive) in the experiment with HOP-62. The GI50 in the experiment on MDA-MB-435 is 3.3 µM (inactive); in the experiment on MDA-N it was 3.45 µM (inactive); in the experiment with Malme-3M it was 2.52 µM (inactive); in the experiment on NCI-H226, 16.3 µM (inactive); with NCI-H460 it was 1.09 µM (active); in the experiment with NCI/ADR-RES, 1.21 µM (inactive). Also, the GI50 in the experiment on OVCAR-4 was 1 µM (active); in the experiment with OVCAR-8, 2.45 µM (inactive); in the experiment with SF-295, 2.08 µM (inactive); in the experiment with SR, 1.11 µM (active); with SW-620, 2.83 µM (inactive); in the experiment with U-251, 1.56 µM (inactive). Moreover, the results for the GI50 with UACC-257 and in the experiment with UO-31 were 3.27 µM (inactive) and 1.48 µM (inactive), respectively.

Regarding `COc1cc2c(SCCN(C)C)nc3ccccc3c2c2ccccc12`, the GI50 was 1.93 µM (inactive) in the experiment with 786-0; 1.77 µM (inactive) with A549; 0.281 µM (active) in the experiment with CCRF-CEM; 1.68 µM (inactive) in the experiment with COLO 205; 1.67 µM (inactive) in the experiment on EKVX; 1.79 µM (inactive) with HOP-62. For the same compound, the GI50 in the experiment on MDA-MB-435 is 1.96 µM (inactive); in the experiment on MDA-N, 2.19 µM (inactive); in the experiment with Malme-3M, 1.82 µM (inactive); in the experiment with NCI-H226, 1.94 µM (inactive); in the experiment on NCI-H460 it was 1.68 µM (inactive); in the experiment on NCI/ADR-RES it was 5.38 µM (inactive). In addition, the GI50 with OVCAR-4 was 2.62 µM (inactive); in the experiment with OVCAR-8, 2.14 µM (inactive); in the experiment with SF-295, 1.77 µM (inactive); in the experiment on SR, 1.7 µM (inactive); with SW-620, 1.74 µM (inactive); in the experiment with U-251, 1.87 µM (inactive). For the same compound, the GI50 in the experiment with UACC-257 is 1.77 µM (inactive); with UO-31, 2.26 µM (inactive).
